Data as given in the NIST ThermoML archive (doi:10.1016/j.fluid.2015.01.010).
Numbers after ± are expanded uncertainties.

Assay: activity coefficient (dimensionless); of the first substance listed, at infinite dilution; xn = mol fraction of the nth substance listed
Details: 101 kPa, Liquid, Chromatography, x1 = 0

SMILES	activity coefficient (303.15 K)	activity coefficient (308.15 K)	activity coefficient (313.15 K)	activity coefficient (318.15 K)	activity coefficient (323.15 K)	activity coefficient (328.15 K)	activity coefficient (333.15 K)	activity coefficient (338.15 K)	activity coefficient (298.15 K)	activity coefficient (299.15 K)	activity coefficient (301.15 K)	activity coefficient (305.15 K)	activity coefficient (306.15 K)	activity coefficient (311.15 K)	activity coefficient (310.15 K)	activity coefficient (315.15 K)	activity coefficient (320.15 K)	activity coefficient (325.15 K)	activity coefficient (330.15 K)
CCCCO [butan-1-ol] + O	52 ± 3	57 ± 2	58 ± 3	64 ± 3	69 ± 3	72 ± 3	80 ± 3	78 ± 3											
c1ccoc1 [furan] + O	397 ± 19	372 ± 19	356 ± 20						415 ± 20	412 ± 20	403 ± 19	394 ± 19	380 ± 19	366 ± 22					
CCCCC=O [pentanal] + O	260 ± 10	276 ± 10	302 ± 12	324 ± 12	339 ± 14	350 ± 14			220 ± 8										
C/C=C/C=O [(E)-2-butenal] + O		42.8 ± 1.6	44.4 ± 1.8	46.2 ± 1.9	47 ± 2.1	47.3 ± 2	48 ± 1.9		39 ± 1.6										
C=CC=O [2-propenal] + O	21.4 ± 0.8	22.4 ± 0.8	23.1 ± 0.9	24 ± 0.9	24.1 ± 0.9	24.3 ± 0.9	24.4 ± 1		20.9 ± 0.8		21.5 ± 0.8	21.7 ± 0.8			22.6 ± 0.8	23.5 ± 0.9	24.1 ± 0.9	24.3 ± 0.9	24.5 ± 0.9
